Test results as given in ChEMBL document CHEMBL1255346 (2008).
Values after ≈ are worked out from the molar mass of the structure shown.

Assays:
[1] = tested on: Serratia marcescens; assay: Antibacterial activity against beta-lactamase KPC-2 producing Serratia marcescens isolate S1 to S21 by agar dilution method
[2] = tested on: Klebsiella pneumoniae; assay: Antibacterial activity against beta-lactamase KPC-2 producing Klebsiella pneumoniae isolate K1 to K9 by agar dilution method; type: functional
[3] = tested on: Escherichia coli; assay: microbe, parasite or virus in culture; settings: isolate E1
Description: (§1) Antibacterial activity against beta-lactamase KPC-2 producing Escherichia coli isolate E1 by agar dilution method

[4] = tested on: Escherichia coli; assay: Antibacterial activity against Escherichia coli EC600 by agar dilution method; type: functional
[5] = tested on: Escherichia coli; assay: Antibacterial activity against Escherichia coli EC600 transconjugant harboring beta-lactamase KPC-2 by agar dilution method; type: functional
[6] = tested on: Klebsiella pneumoniae; assay: Antibacterial activity against beta-lactamase KPC-2 producing Klebsiella pneumoniae isolate K10 by agar dilution method; type: functional
[7] = tested on: Klebsiella pneumoniae; assay: Antibacterial activity against beta-lactamase KPC-2 producing Klebsiella pneumoniae isolate K1 to K9 in presence of Sulbactam by agar dilution method; type: functional
[8] = tested on: Klebsiella pneumoniae; assay: Antibacterial activity against beta-lactamase KPC-2 producing Klebsiella pneumoniae isolate K10 in presence of Sulbactam by agar dilution method; type: functional
[9] = tested on: Escherichia coli; assay: microbe, parasite or virus in culture; settings: isolate E1; remark: listed apart in the source
Description: Antibacterial activity against beta-lactamase KPC-2 producing Escherichia coli isolate E1 in presence of Sulbactam by agar dilution method

[10] = tested on: Serratia marcescens; assay: Antibacterial activity against beta-lactamase KPC-2 producing Serratia marcescens isolate S1 to S21 in presence of Sulbactam by agar dilution method; type: functional
[11] = tested on: Escherichia coli; assay: Antibacterial activity against Escherichia coli EC600 transconjugant harboring beta-lactamase KPC-2 in presence of Sulbactam by agar dilution method
[12] = tested on: Escherichia coli; assay: Antibacterial activity against Escherichia coli EC600 in presence of Sulbactam by agar dilution method; type: functional
[13] = tested on: Klebsiella pneumoniae; assay: Antibacterial activity against beta-lactamase KPC-2 producing Klebsiella pneumoniae isolate K10 in presence of Tazobactam by agar dilution method; type: functional
[14] = tested on: Escherichia coli; assay: Antibacterial activity against Escherichia coli EC600 in presence of Tazobactam by agar dilution method; type: functional
[15] = tested on: Escherichia coli; assay: Antibacterial activity against Escherichia coli EC600 transconjugant harboring beta-lactamase KPC-2 in presence of Tazobactam by agar dilution method; type: functional
[16] = tested on: Escherichia coli; assay: Antibacterial activity against beta-lactamase KPC-2 producing Escherichia coli isolate E1 in presence of Tazobactam by agar dilution method; type: functional
[17] = tested on: Serratia marcescens; assay: Antibacterial activity against beta-lactamase KPC-2 producing Serratia marcescens isolate S1 to S21 in presence of Tazobactam by agar dilution method; type: functional
[18] = tested on: Klebsiella pneumoniae; assay: Antibacterial activity against beta-lactamase KPC-2 producing Klebsiella pneumoniae isolate K1 to K9 in presence of Tazobactam by agar dilution method; type: functional
[19] = tested on: Escherichia coli; settings: isolate E1
Description: as §1

Molecule	MIC [1] [µg/mL]	MIC [2] [µg/mL]	MIC [3] [µg/mL]	MIC [4] [µg/mL]	MIC [5] [µg/mL]	MIC [6] [µg/mL]	also measured
C[C@@H](O)[C@H]1C(=O)N2C(C(=O)O)=C(S[C@@H]3CN[C@H](C(=O)Nc4cccc(C(=O)O)c4)C3)[C@H](C)[C@H]12	4 (≈ 8.41 µM)	8 (≈ 16.8 µM)	8 (≈ 16.8 µM)	≤ 0.125	4 (≈ 8.41 µM)	> 256	
CO/N=C(\C(=O)N[C@@H]1C(=O)N2C(C(=O)[O-])=C(C[N+]3(C)CCCC3)CS[C@H]12)c1csc(N)n1	8 (≈ 16.6 µM)		64 (≈ 133 µM)	≤ 0.125	8 (≈ 16.6 µM)	256 (≈ 533 µM)	
CC1(C)S[C@@H]2[C@H](NC(=O)[C@H](N)c3ccccc3)C(=O)N2[C@H]1C(=O)O [AMPICILLIN]	> 256	> 256	> 256	8 (≈ 22.9 µM)	> 256	> 256	
C[C@H]1[C@H](NC(=O)/C(=N\OC(C)(C)C(=O)O)c2csc(N)n2)C(=O)N1S(=O)(=O)O [AZTREONAM]	128 (≈ 294 µM)	256 (≈ 588 µM)	256 (≈ 588 µM)	≤ 0.125	128 (≈ 294 µM)	> 256	
CCN1CCN(C(=O)N[C@@H](C(=O)N[C@@H]2C(=O)N3C(C(=O)O)=C(CSc4nnnn4C)CS[C@H]23)c2ccc(O)cc2)C(=O)C1=O [CEFOPERAZONE]							MIC [7]: 128 µg/mL; MIC [8]: > 256 µg/mL; MIC [9]: 128 µg/mL (≈ 198 µM); MIC [10]: 32 µg/mL; MIC [11]: 32 µg/mL; MIC [12]: ≤ 0.125 µg/mL
CO/N=C(\C(=O)N[C@@H]1C(=O)N2C(C(=O)O)=C(COC(C)=O)CS[C@H]12)c1csc(N)n1 [CEFOTAXIME]	16 (≈ 35.1 µM)	128 (≈ 281 µM)	256 (≈ 562 µM)	≤ 0.125	8 (≈ 17.6 µM)	256 (≈ 562 µM)	
CO[C@@]1(NC(=O)Cc2cccs2)C(=O)N2C(C(=O)O)=C(COC(N)=O)CS[C@@H]21 [CEFOXITIN]	16 (≈ 37.4 µM)	8 (≈ 18.7 µM)	32 (≈ 74.9 µM)	8 (≈ 18.7 µM)	16 (≈ 37.4 µM)	256 (≈ 599 µM)	
CC(C)(O/N=C(\C(=O)N[C@@H]1C(=O)N2C(C(=O)[O-])=C(C[n+]3ccccc3)CS[C@H]12)c1csc(N)n1)C(=O)O [CEFTAZIDIME]	8 (≈ 14.6 µM)	64 (≈ 117 µM)	64 (≈ 117 µM)	0.25 (≈ 0.457 µM)	16 (≈ 29.3 µM)	256 (≈ 468 µM)	
CO/N=C(\C(=O)N[C@@H]1C(=O)N2C(C(=O)O)=C(CSc3nc(=O)c(O)nn3C)CS[C@H]12)c1csc(N)n1 [CEFTRIAXONE]	32 (≈ 57.7 µM)	256 (≈ 462 µM)	> 256	≤ 0.125	32 (≈ 57.7 µM)	> 256	
O=C(O)c1cn(C2CC2)c2cc(N3CCNCC3)c(F)cc2c1=O [CIPROFLOXACIN]			> 32				
C[C@@H](O)[C@H]1C(=O)N2C(C(=O)O)=C(SCCNC=N)C[C@H]12 [IMIPENEM ANHYDROUS]	4 (≈ 13.4 µM)	2 (≈ 6.68 µM)	2 (≈ 6.68 µM)	≤ 0.125	1 (≈ 3.34 µM)	128 (≈ 428 µM)	
C[C@@H](O)[C@H]1C(=O)N2C(C(=O)O)=C(S[C@@H]3CN[C@H](C(=O)N(C)C)C3)[C@H](C)[C@H]12 [MEROPENEM]	2 (≈ 5.22 µM)		2 (≈ 5.22 µM)	≤ 0.125	2 (≈ 5.22 µM)	256 (≈ 668 µM)	
CCN1CCN(C(=O)N[C@@H](C(=O)N[C@@H]2C(=O)N3[C@@H]2SC(C)(C)[C@@H]3C(=O)O)c2ccccc2)C(=O)C1=O [PIPERACILLIN]	256 (≈ 495 µM)		> 256	1 (≈ 1.93 µM)	256 (≈ 495 µM)	> 256	MIC [13]: > 256 µg/mL; MIC [14]: 1 µg/mL; MIC [15]: 256 µg/mL; MIC [16]: 256 µg/mL; MIC [17]: 128 µg/mL; MIC [18]: > 256 µg/mL
GENTAMICIN		> 256		0.25	0.25	> 256	MIC [19]: 64 µg/mL
